This test concerns the target T1, hP2X3 (human Purinergic P2X receptors subtype 3), clone B (Homo sapiens, UniProt P56373).
T1 sequence (P56373 1-397): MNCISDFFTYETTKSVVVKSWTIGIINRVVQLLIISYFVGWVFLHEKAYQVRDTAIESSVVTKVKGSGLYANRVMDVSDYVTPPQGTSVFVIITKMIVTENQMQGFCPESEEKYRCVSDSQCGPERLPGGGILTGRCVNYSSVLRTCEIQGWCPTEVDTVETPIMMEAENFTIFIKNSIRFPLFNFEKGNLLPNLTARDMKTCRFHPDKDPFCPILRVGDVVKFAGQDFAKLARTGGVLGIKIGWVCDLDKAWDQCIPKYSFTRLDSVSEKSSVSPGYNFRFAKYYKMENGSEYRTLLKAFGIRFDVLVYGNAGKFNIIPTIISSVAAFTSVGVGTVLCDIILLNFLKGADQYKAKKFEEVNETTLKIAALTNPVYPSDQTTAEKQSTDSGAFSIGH
Put plainly: hP2X3 FLIPR calcium (Fluo-4) antagonist assay, clone B. The conditions noted are these: Human P2X3 FLIPR Clone B IC50 (nM), RLE cells expressing hP2X3 clone B (NM_002559); agonist 500 nM α,β-methylene-ATP.

A value given as a limit tells only on which side of the number the result lay.

What is called IC50 is the midpoint of a concentration-inhibition curve.

On to `CC(=O)N1CCN(c2nc3c(c(N4CCC[C@@H]4C(=O)OCc4ccc(Cl)cc4)n2)CN(C(C)C)C3=O)CC1` [Example 301, (4-chlorophenyl)methyl (2R)-1-[4-(4-acetylpiperazin-1-yl)-7-oxo-8-propan-2-yl-3,5,8-triazabicyclo[4.3.0]nona-1,3,5-trien-2-yl]pyrrolidine-2-carboxylate], for which the IC50 stood at 2500 nM.

As to `CC(C)N1Cc2c(NC(c3ccc(F)cc3)c3ccc(F)cc3)nc(NCCN(C)C)nc2C1=O` [Example 17, 4-{[bis(4-fluorophenyl)methyl]amino}-2-{[2-(dimethylamino)ethyl]amino}-6-isopropyl-5,6-dihydro-7H-pyrrolo[3,4-d]pyrimidin-7-one], the IC50 was found to be 70 nM.

On to `CC(C)N1Cc2c(NCc3cnc4ccccc4c3)nc(N3CCn4cnnc4C3)nc2C1=O` [Example 137, 2-(5,6-Dihydro-[1,2,4]triazolo[4,3-a]pyrazin-7(8H)-yl)-6-isopropyl-4-(quinolin-3-ylmethylamino)-5H-pyrrolo[3,4-d]pyrimidin-7(6H)-one], for which the IC50 was determined as 680 nM.

`CC(C)N1Cc2c(Nc3ccc(Cc4ccccc4)cc3)nc(N3CCOCC3)nc2C1=O` [Example 37, 4-[(4-benzylphenyl)amino]-6-isopropyl-2-morpholin-4-yl-5,6-dihydro-7H-pyrrolo[3,4-d]pyrimidin-7-one]: the IC50 was more than 30000 nM.

Take `CC(=O)N1CCN(c2nc(NC(C)Cc3ccc(F)cc3)c3c(n2)C(=O)N(C(C)C)C3)CC1` (stereo not shown) [Example 12, 2-(4-acetylpiperazin-1-yl)-4-{[2-(4-fluorophenyl)-1-methylethyl]amino}-6-isopropyl-5,6-dihydro-7H-pyrrolo[3,4-d]pyrimidin-7-one]: the IC50 turned out to be 3900 nM.

Regarding `CC(=O)N1CCN(c2nc(NCc3cn4ccccc4n3)c3c(n2)C(=O)N(C(C)C)C3)CC1` [Example 155, 4-(4-acetylpiperazin-1-yl)-2-(1,7-diazabicyclo[4.3.0]nona-2,4,6,8-tetraen-8-ylmethylamino)-8-propan-2-yl-3,5,8-triazabicyclo[4.3.0]nona-1,3,5-trien-7-one], the IC50 amounted to 500 nM.

As for `CC(C)N1Cc2c(NC(c3ccccc3)c3ccccc3)nc(NCCO)nc2C1=O` [Example 100], the IC50 was 1100 nM.

In the case of `CC(C)N1Cc2c(NC(c3ccccc3)c3ccc(Cl)cc3)nc(N3CCOCC3)nc2C1=O` (stereo not shown) [Example 77, 4-{[(4-Chloro-phenyl)-phenyl-methyl]-amino}-6-isopropyl-2-morpholin-4-yl-5,6-dihydro-pyrrolo[3,4-d]pyrimidin-7-one], the IC50 amounted to 260 nM.

`CC(=O)N1CCN(c2nc3c(c(N4CCOC(C)(c5ccc(Cl)cc5)C4)n2)CN(C(C)C)C3=O)CC1` (stereo not shown) [Example 123, 2-(4-acetylpiperazin-1-yl)-4-[2-(4-chlorophenyl)-2-methylmorpholin-4-yl]-6-isopropyl-5,6-dihydro-7H-pyrrolo[3,4-d]pyrimidin-7-one]: the half-inhibitory concentration (IC50) was found to be 9100 nM.

Regarding `CC1CN(c2nc(NC(c3ccccc3)c3ccccc3)c3c(n2)C(=O)N(C(C)C)C3)CC(C)O1` (stereo not shown) [Example 86, 4-(Benzhydryl-amino)-2-(2,6-dimethyl-morpholin-4-yl)-6-isopropyl-5,6-dihydro-pyrrolo[3,4-d]pyrimidin-7-one], the IC50 was 280 nM.

For the compound `CC(C)N1Cc2c(NCc3cnc4ccccc4c3)nc(NCCS(C)(=O)=O)nc2C1=O` [Example 215, 6-isopropyl-2-(2-methylsulfonylethylamino)-4-(3-quinolylmethylamino)-5H-pyrrolo[3,4-d]pyrimidin-7-one], the IC50 is 2000 nM.

Take `CC(=O)N1CCN(c2nc(N[C@@H]3CCC[C@H]3c3ccc(Cl)cc3)c3c(n2)C(=O)N(C(C)C)C3)CC1` (racemic) [Example 33, 2-(4-acetylpiperazin-1-yl)-4-{[trans-2-(4-chlorophenyl)cyclopentyl]amino}-6-isopropyl-5,6-dihydro-7H-pyrrolo[3,4-d]pyrimidin-7-one]: the IC50 turned out to be 580 nM.

For `CC(=O)N1CCN(c2nc3c(c(N(Cc4ccccc4)Cc4ccccc4)n2)CN(C(C)C)C3=O)CC1` [Example 95, 2-(4-Acetyl-piperazin-1-yl)-4-dibenzylamino-6-isopropyl-5,6-dihydro-pyrrolo[3,4-d]-pyrimidin-7-one], the IC50 was 430 nM.

`CCN1CCN(c2nc(NC(C)(C)Cc3ccc(Cl)cc3)c3c(n2)C(=O)N(C(C)C)C3)CC1` [Example 64, 4-{[2-(4-chlorophenyl)-1,1-dimethylethyl]amino}-2-(4-ethylpiperazin-1-yl)-6-isopropyl-5,6-dihydro-7H-pyrrolo[3,4-d]pyrimidin-7-one]: the IC50 turned out to be 3500 nM.

For `CC(=O)N1CCN(c2nc3c(c(N4CCCC4Cc4ccc(Cl)cc4)n2)CN(C(C)C)C3=O)CC1` (stereo not shown) [Example 50, 2-(4-acetylpiperazin-1-yl)-4-[2-(4-chlorobenzyl)pyrrolidin-1-yl]-6-isopropyl-5,6-dihydro-7H-pyrrolo[3,4-d]pyrimidin-7-one], the IC50 was found to be 150 nM.

Consider `CC(C)N1Cc2c(NC(c3ccccc3)c3ccccc3)nc(NCCN(C)C)nc2C1=O` [Example 97, 4-(Benzhydryl-amino)-2-(2-dimethylamino-ethylamino)-6-isopropyl-5,6-dihydro-pyrrolo[3,4-d]pyrimidin-7-one], for which the IC50 came out at 230 nM.

Consider `CC(C)C(=O)N1CCN(c2nc(NC(c3ccccc3)c3ccccc3)c3c(n2)C(=O)N(C(C)C)C3)CC1` [Example 80, 4-(Benzhydryl-amino)-2-(4-isobutyryl-piperazin-1-yl)-6-isopropyl-5,6-dihydro-pyrrolo[3,4-d]pyrimidin-7-one], for which the IC50 is 190 nM.

Consider `CC(=O)N1CCN(c2nc(N[C@@H](C)c3ccc4ncccc4c3)c3c(n2)C(=O)N(C(C)C)C3)CC1` [Example 244, (S)-2-(4-acetylpiperazin-1-yl)-6-isopropyl-4-(1-(quinolin-6-yl)ethylamino)-5H-pyrrolo[3,4-d]pyrimidin-7(6H)-one], for which the IC50 is 6500 nM.

With `CCOc1ccc(CN(CC2CC2)c2nc(N3CCN(C(C)=O)CC3)nc3c2CN(C(C)C)C3=O)cc1` [Example 162, 2-(4-acetylpiperazin-1-yl)-4-((cyclopropylmethyl)(4-ethoxybenzyl)amino)-6-isopropyl-5H-pyrrolo[3,4-d]pyrimidin-7(6H)-one], the IC50 was 950 nM.

Take `CCN1CCN(c2nc(NCC(c3ccccc3)c3ccccc3)c3c(n2)C(=O)N(C(C)C)C3)CC1` [Example 107, 4-(2,2-Diphenyl-ethylamino)-2-(4-ethyl-piperazin-1-yl)-6-isopropyl-5,6-dihydro-pyrrolo[3,4-d]pyrimidin-7-one]: the IC50 came to 2300 nM.

As to `CC(=O)N1CCN(c2nc(NC(C)c3ccc(Cl)cc3)c3c(n2)C(=O)N(C(C)C)C3)CC1` (stereo not shown) [Example 53, 2-(4-acetylpiperazin-1-yl)-4-{[1-(4-chlorophenyl)ethyl]amino}-6-isopropyl-5,6-dihydro-7H-pyrrolo[3,4-d]pyrimidin-7-one], the IC50 amounted to 750 nM.

Turning to `CCN1CCN(c2nc(NC(c3ccccc3)c3ccc(C)cc3)c3c(n2)C(=O)N(C(C)C)C3)CC1` (stereo not shown) [Example 101, 2-(4-Ethyl-piperazin-1-yl)-6-isopropyl-4-[(phenyl-p-tolyl-methyl)-amino]-5,6-dihydro-pyrrolo[3,4-d]-pyrimidin-7-one], the half-inhibitory concentration (IC50) is 150 nM.

For the origin of these results see patent US20090099195A1 (ASTRAZENECA AB, priority 2007, published 2009).
